Results: US20230114241A1, “METHODS OF TREATING EPILEPSY USING THE SAME” (Trevena, Inc., priority 2019, published 2023)

Target: human sphingosine-1-phosphate receptor 1 (S1P1) (Homo sapiens, UniProt P21453)
Assay: Inhibition of cAMP production (HTRF cAMP HiRange), S1P1 CHO-K1 cells
Format: cell-based
Details: inhibition of cAMP production, S1P1; read-out: hS1P1 CAMP pEC50 (converted)
Procedure, shortened: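 CHO-K1 cells co-expressing human S1P1 (C-terminal ProLink tag) and EA-β-arrestin2, plated overnight; after 30 min compound incubation at 37 °C, intracellular cAMP measured by HTRF TR-FRET following 1 h at room temperature. Values normalized to fingolimod.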

Sequence of human sphingosine-1-phosphate receptor 1 (S1P1) (P21453 whole entry): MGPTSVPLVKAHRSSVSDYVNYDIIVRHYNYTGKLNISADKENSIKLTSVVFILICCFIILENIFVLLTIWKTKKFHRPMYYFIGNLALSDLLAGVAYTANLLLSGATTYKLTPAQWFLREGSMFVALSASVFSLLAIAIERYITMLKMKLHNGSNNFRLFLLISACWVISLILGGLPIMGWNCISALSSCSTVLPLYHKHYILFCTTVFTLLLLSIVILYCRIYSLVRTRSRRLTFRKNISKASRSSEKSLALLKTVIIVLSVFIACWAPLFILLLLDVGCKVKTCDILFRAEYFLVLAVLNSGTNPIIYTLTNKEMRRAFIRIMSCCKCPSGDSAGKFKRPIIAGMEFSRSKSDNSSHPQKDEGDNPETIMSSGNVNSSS

SMILES	EC50 [nM]
CC(C)(O)Cn1nnc2cc(-c3nc(-c4ccc5nc[nH]c5c4)no3)ccc21 [Compound 501, 1-{5-[3-(1H-1,3-benzo-diazol-6-yl)-1,2,4-oxadiazol-5-yl]-1H-1,2,3-benzotriazol-1-yl}-2-methylpropan-2-ol]	> 316
CCC1(CC)CC(=O)c2cc(-c3nc(-c4ccsc4)no3)ccc2N1 [Compound 554, 2,2-diethyl-6-(3-(thiophen-3-yl)-1,2,4-oxadiazol-5-yl)-2,3-dihydroquinolin-4(1H)-one]	< 316
COc1cccnc1-c1noc(-c2ccc3c(c2)nnn3C(C)C)n1 [Compound 627, 5-(1-isopropyl-1H-benzo[d][1,2,3]triazol-5-yl)-3-(3-methoxypyridin-2-yl)-1,2,4-oxadiazole]	> 316
CNc1ccccc1-c1coc(-c2ccc3c(c2)nnn3C(C)C)n1 [Compound 587, N-methyl-2-{2-[1-(propan-2-yl)-1H-1,2,3-benzotriazol-5-yl]-1,3-oxazol-4-yl}aniline]	> 316
CCC1(CC)CC(=O)c2cc(-c3nc(-c4ccc5sc(N)nc5c4)no3)ccc2O1 [Compound 446, 6-(3-(2-aminobenzo [d]thiazol-5-yl)-1,2,4-oxadiazol-5-yl)-2,2-diethylchroman-4-one]	> 316
CC(C)Nc1ccc(-c2ccc(-c3ccc4c(c3)nnn4C(C)C)cc2)cc1C#N [Compound 507, 4′-(1-isopropyl-1H-benzo[d][1,2,3]triazol-5-yl)-4-(isopropylamino)-[1,1′-biphenyl]-3-carbonitrile]	< 316
CCC1(CC)CC(=O)c2cc(-c3nc(-c4ccc(NC(C)=O)cc4OC(F)(F)F)no3)ccc2O1 [Compound 584, N-{4-[5-(2,2-diethyl-4-oxo-3,4-dihydro-2H-1-benzopyran-6-yl)-1,2,4-oxadiazol-3-yl]-3-(trifluoromethoxy)phenyl}acetamide]	< 316

Same assay, conditions: inhibition of cAMP production; potency; read-out: hS1P1 CAMP pEC50 (converted)

SMILES	EC50 [nM]
Cc1cc(-c2nc(-c3ccc4c(c3)nnn4C(C)C)no2)cc(C)n1 [Compound 156, 5-(2,6-dimethyl-pyridin-4-yl)-3-(1-isopropyl-1H-benzo[d][1,2,3]triazol-5-yl)-1,2,4-oxadiazole]	< 316
CC(C)n1nnc2cc(-c3nc(-c4ccc5ccccc5n4)no3)ccc21 [Compound 168, 2-{5-[1-(propan-2-yl)-1H-1,2,3-benzotriazol-5-yl]-1,2,4-oxadiazol-3-yl}quinoline]	> 316
O=C1CC2(CCCCC2)Oc2ccc(-c3nc(-c4cccnc4)no3)cc21 [Compound 41, 6-[3-(pyridin-3-yl)-1,2,4-oxadiazol-5-yl]-3,4-dihydrospiro[1-benzopyran-2,1′-cyclohexane]-4-one]	> 316
CCC1(CC)CC(=O)c2cc(-c3nc(-c4cnccc4OC)no3)ccc2O1 [Compound 303, 2,2-diethyl-6-(3-(4-methoxypyridin-3-yl)-1,2,4-oxadiazol-5-yl)chroman-4-one]	> 316
COc1ccccc1-c1noc(-c2ccc3c(c2)nnn3C2CCOCC2)n1 [Compound 231, 5-[3-(2-methoxy-phenyl)-1,2,4-oxadiazol-5-yl]-1-(oxan-4-yl)-1H-1,2,3-benzotriazole]	> 316
CC(C)n1nnc2cc(-c3nc(-c4ccccn4)no3)ccc21 [Compound 241, 1-(propan-2-yl)-5-[3-(pyridin-2-yl)-1,2,4-oxadiazol-5-yl]-1H-1,2,3-benzotriazole]	> 316
CCC1(CC)CC(=O)c2cc(-c3nc(-c4ccnc(F)c4)no3)ccc2O1 [Compound 146, 2,2-diethyl-6-(3-(2-fluoropyridin-4-yl)-1,2,4-oxadiazol-5-yl)chroman-4-one]	< 316
Cc1ccc(-c2nc(-c3ccc4c(c3)nnn4C(C)C)no2)cn1 [Compound 119, 3-(1-isopropyl-1H-benzo[d][1,2,3]triazol-5-yl)-5-(6-methyl-pyridin-3-yl)-1,2,4-oxadiazole]	> 316
CCC1(CC)CC(=O)c2cc(-c3nc(-c4ccccc4C)no3)ccc2O1 [Compound 66, 2,2-diethyl-6-(3-(o-tolyl)-1,2,4-oxadiazol-5-yl)chroman-4-one]	< 316
CCC1(CC)CC(=O)c2cc(-c3nsc(-c4cccnc4)n3)ccc2O1 [Compound 137, 2,2-diethyl-6-(5-(pyridin-3-yl)-1,2,4-thiadiazol-3-yl)chroman-4-one]	< 316
c1ccc(Oc2ccc(-c3noc(-c4ccc5c(c4)nnn5C4CC4)n3)cc2)cc1 [Compound 285, 1-cyclopropyl-5-[3-(4-phenoxyphenyl)-1,2,4-oxadiazol-5-yl]-1H-1,2,3-benzotriazole]	> 316
O=C1CC2(CCCC2)Oc2ccc(-c3nc(-c4ccncc4)no3)cc21 [Compound 176, 6-[3-(pyridin-4-yl)-1,2,4-oxadiazol-5-yl]-3,4-dihydrospiro[1-benzopyran-2,1′-cyclopentane]-4-one]	> 316
CC(C)n1nnc2cc(-c3ncc(-c4cccc(F)c4)s3)ccc21 [Compound 110, 5-(3-fluorophenyl)-2-(1-isopropyl-1H-benzo[d][1,2,3]triazol-5-yl)thiazole]	> 316
Cc1ccncc1-c1noc(-c2ccc3c(c2)nnn3CC(C)(C)O)n1 [Compound 206, 2-methyl-1-{5-[3-(4-methylpyridin-3-yl)-1,2,4-oxadiazol-5-yl]-1H-1,2,3-benzotriazol-1-yl}propan-2-ol]	> 316
COc1ccccc1-c1nc(-c2ccc3c(c2)nnn3C(C)C)ns1 [Compound 138, 5-[5-(2-methoxyphenyl)-1,2,4-thiadiazol-3-yl]-1-(propan-2-yl)-1H-1,2,3-benzotriazole]	< 316
COc1ccc(-c2noc(-c3ccc4c(c3)nnn4C3CCCCC3)n2)cc1C(F)(F)F [Compound 284, 1-cyclohexyl-5-{3-[4-methoxy-3-(trifluoro-methyl)phenyl]-1,2,4-oxadiazol-5-yl}-1H-1,2,3-benzotriazole]	> 316
COc1cccc(OC)c1-c1noc(-c2ccc3c(cnn3C(C)C)c2)n1 [Compound 335, 3-(2,6-dimethoxy-phenyl)-5-(1-isopropylindazol-5-yl)-1,2,4-oxadiazole]	> 316
CCC1(CC)CC(=O)c2cc(-c3nc(-c4ccc(N)cc4)no3)ccc2O1 [Compound 256, 6-(3-(4-amino-phenyl)-1,2,4-oxadiazol-5-yl)-2,2-diethylchroman-4-one]	< 316
CC(C)n1ncc2cc(-c3nc(-c4ccccc4OC(F)(F)F)no3)ccc21 [Compound 331, 5-(1-isopropyl-1H-indazol-5-yl)-3-(2-(trifluoro-methoxy)phenyl)-1,2,4-oxadiazole]	< 316
Clc1ncccc1-c1noc(-c2ccc3c(c2)nnn3CC2CC2)n1 [Compound 199, 5-[3-(2-chloropyridin-3-yl)-1,2,4-oxadiazol-5-yl]-1-(cyclopropyl-methyl)-1H-1,2,3-benzotriazole]	> 316
CC(C)CCn1nnc2cc(-c3nc(-c4ccc(C(F)(F)F)c(F)c4)no3)ccc21 [Compound 122, 5-{3-[3-fluoro-4-(trifluoromethyl)phenyl]-1,2,4-oxadiazol-5-yl}-1-(3-methyl-butyl)-1H-1,2,3-benzotriazole]	> 316
c1ccc(-c2noc(-c3ccc4c(c3)nnn4C3CCCCC3)n2)cc1 [Compound 292, 1-cyclohexyl-5-(3-phenyl-1,2,4-oxadiazol-5-yl)-1H-1,2,3-benzotriazole]	> 316
